According to PubChem BioAssay AID220 (DTP/NCI, 2004):
Several values for one entry are separate records, joined by “and”; a condition that tells them apart may be missing. Equal entries are not always repeated. Records with an inconclusive call do not appear.

System: CD8F1 mice, subcutaneous mammary adenocarcinoma, T/C%
Test: NCI In Vivo Anticancer Drug Screen. Data for tumor model Mammary Adenocarcinoma CD8F1 (subcutaneous) in CD8F1
Conditions: higher = larger tumour
How it was run: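 Antitumor activity is assessed in transplantable-tumor mice by comparing the treated group with a vehicle-treated control group. Survival or tumor size serves as the measure, reported as T divided by C.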

[1] = endpoint: median tumor weight change, dose: 125.0 mg/kg/injection, schedule: Q01DX001 (ip), vehicle: saline with Tween-80
[2] = endpoint: median tumor weight change, dose: 250.0 mg/kg/injection, schedule: Q01DX001 (ip), vehicle: saline with Tween-80
[3] = endpoint: median tumor weight (est.), dose: 200.0 mg/kg/injection, schedule: Q07DX005 (ip), vehicle: suspension in saline

How did the T/C (endpoint: median tumor weight change, dose: 16.0 mg/kg/injection, schedule: Q01DX001 (ip), vehicle: saline with Tween-80) turn out when `CCc1ccc(C2=C(O)C(=O)C(c3ccc(CC)cc3)=C(O)C2=O)cc1` was run?
Its T/C is 88 % of control.

And the T/C (endpoint: median tumor weight change, dose: 31.0 mg/kg/injection, schedule: Q01DX001 (ip), vehicle: saline with Tween-80)?
The T/C was 107 % of control.

What about the T/C (endpoint: median tumor weight change, dose: 62.0 mg/kg/injection, schedule: Q01DX001 (ip), vehicle: saline with Tween-80) of the same compound?
The T/C was 92 % of control.

And the T/C [1]?
Its T/C is 61 % of control.

`CCCCn1cnc2c(=S)nc[nH]c21` was tested. Which T/C [2] did it give?
The T/C was 60 % of control.

What about the T/C (endpoint: median tumor weight change, dose: 500.0 mg/kg/injection, schedule: Q01DX001 (ip), vehicle: saline with Tween-80) of the same compound?
The T/C was 2 % of control.

And the T/C (endpoint: median tumor weight change, dose: 1000.0 mg/kg/injection, schedule: Q01DX001 (ip), vehicle: saline with Tween-80)?
The T/C was 8 % of control.

`CC1(C)OCC(CO)(Nc2nc(N3CC3)nc(N3CC3)n2)CO1` was tested. Which T/C (endpoint: median tumor weight (est.), dose: 1.25 mg/kg/injection, schedule: Q07DX005 (ip), vehicle: saline) did it give?
Its T/C is 41 % of control.

What about the T/C (endpoint: median tumor weight (est.), dose: 2.5 mg/kg/injection, schedule: Q07DX005 (ip), vehicle: saline) of the same compound?
Its T/C is 36 % of control.

What about the T/C (endpoint: median tumor weight (est.), dose: 5.0 mg/kg/injection, schedule: Q07DX005 (ip), vehicle: saline) of the same compound?
Its T/C is 18 % of control.

What about the T/C (endpoint: median tumor weight (est.), dose: 10.0 mg/kg/injection, schedule: Q07DX005 (ip), vehicle: saline) of the same compound?
Its T/C is 6 % of control.

What does the source list for `O=CC(S)CO` (stereo not drawn)?
T/C (endpoint: median tumor weight (est.), dose: 12.5 mg/kg/injection, schedule: Q07DX005 (ip), vehicle: suspension in saline): 165 % of control; T/C (endpoint: median tumor weight (est.), dose: 25.0 mg/kg/injection, schedule: Q07DX005 (ip), vehicle: suspension in saline): 231 % of control and 88 % of control; T/C (endpoint: median tumor weight (est.), dose: 50.0 mg/kg/injection, schedule: Q07DX005 (ip), vehicle: suspension in saline): 112 % of control; T/C [3]: 102 % of control

Which T/C (endpoint: median tumor weight (est.), dose: 39.0 micrograms/kg/injection, schedule: Q07DX005 (ip), vehicle: Klucel (hydroxypropylcellulose) (HPC)) does the source give for `CCCCCn1c(C)cc(/C=C\c2ccc3cc(C)ccc3[n+]2C)c1C` here?
Its T/C is 87 % of control.

What about the T/C (endpoint: median tumor weight (est.), dose: 78.0 micrograms/kg/injection, schedule: Q07DX005 (ip), vehicle: Klucel (hydroxypropylcellulose) (HPC)) of the same compound?
The T/C was 72 % of control.

And the T/C (endpoint: median tumor weight (est.), dose: 156.0 micrograms/kg/injection, schedule: Q07DX005 (ip), vehicle: Klucel (hydroxypropylcellulose) (HPC))?
The T/C was 76 % of control.

What about the T/C (endpoint: median tumor weight (est.), dose: 312.0 micrograms/kg/injection, schedule: Q07DX005 (ip), vehicle: Klucel (hydroxypropylcellulose) (HPC)) of the same compound?
Its T/C is 111 % of control.

And the T/C (endpoint: median tumor weight (est.), dose: 625.0 micrograms/kg/injection, schedule: Q07DX005 (ip), vehicle: Klucel (hydroxypropylcellulose) (HPC))?
Its T/C is 107 % of control.

How did the T/C (endpoint: median tumor weight (est.), dose: 25.0 mg/kg/injection, schedule: Q07DX005 (ip), vehicle: saline) turn out when `N=c1ccn2c(n1)OC1C(O)C(CO)OC12` (stereo not drawn) was run?
The T/C was 80 % of control.

And the T/C (endpoint: median tumor weight (est.), dose: 50.0 mg/kg/injection, schedule: Q07DX005 (ip), vehicle: saline)?
Its T/C is 159 % of control.

What about the T/C (endpoint: median tumor weight (est.), dose: 100.0 mg/kg/injection, schedule: Q07DX005 (ip), vehicle: saline) of the same compound?
The T/C was 111 % of control.

And the T/C (endpoint: median tumor weight (est.), dose: 100.0 mg/kg/injection, schedule: Q07DX005 (ip), vehicle: suspension in saline)?
Its T/C is 81 % of control.

What about the T/C (endpoint: median tumor weight (est.), dose: 200.0 mg/kg/injection, schedule: Q07DX005 (ip), vehicle: saline) of the same compound?
Its T/C is 53 % of control.

And the T/C [3]?
Its T/C is 109 % of control.

And the T/C (endpoint: median tumor weight (est.), dose: 400.0 mg/kg/injection, schedule: Q07DX005 (ip), vehicle: saline)?
The T/C was 22 % of control.

What about the T/C (endpoint: median tumor weight (est.), dose: 400.0 mg/kg/injection, schedule: Q07DX005 (ip), vehicle: suspension in saline) of the same compound?
The T/C was 70 % of control.

What about the T/C (endpoint: median tumor weight (est.), dose: 600.0 mg/kg/injection, schedule: Q07DX005 (ip), vehicle: saline) of the same compound?
Its T/C is 21 % of control.

What about the T/C (endpoint: median tumor weight (est.), dose: 800.0 mg/kg/injection, schedule: Q07DX005 (ip), vehicle: suspension in saline) of the same compound?
The T/C was 52 % of control.

What about the T/C (endpoint: median tumor weight (est.), dose: 1600.0 mg/kg/injection, schedule: Q07DX005 (ip), vehicle: suspension in saline) of the same compound?
Its T/C is 35 % of control.

Which results are given for `C/C(=N\NC(N)=O)c1cccc(/C(C)=N/NC(N)=O)n1`?
T/C (endpoint: median tumor weight change, dose: 62.5 mg/kg/injection, schedule: Q01DX001 (ip), vehicle: saline with Tween-80): 64 % of control; T/C [1]: 53 % of control; T/C [2]: 48 % of control

With `C=CC(C)NC(=S)NNC(=S)NC` (stereo not drawn) as the compound, how does the T/C (endpoint: median tumor weight change, dose: 62.5 mg/kg/injection, schedule: Q01DX001 (ip), vehicle: saline + alcohol) read?
Its T/C is 155 % of control.

What about the T/C (endpoint: median tumor weight change, dose: 125.0 mg/kg/injection, schedule: Q01DX001 (ip), vehicle: saline + alcohol) of the same compound?
The T/C was 164 % of control.

And the T/C (endpoint: median tumor weight change, dose: 250.0 mg/kg/injection, schedule: Q01DX001 (ip), vehicle: saline + alcohol)?
Its T/C is 119 % of control.

And the T/C (endpoint: median tumor weight change, dose: 500.0 mg/kg/injection, schedule: Q01DX001 (ip), vehicle: saline + alcohol)?
Its T/C is 82 % of control.
